Biological target: Sepiapterin reductase (Homo sapiens, UniProt P35270)
Experiment: Inhibition of sepiapterin reductase (unknown origin)

Sequence of Sepiapterin reductase (P35270 whole entry): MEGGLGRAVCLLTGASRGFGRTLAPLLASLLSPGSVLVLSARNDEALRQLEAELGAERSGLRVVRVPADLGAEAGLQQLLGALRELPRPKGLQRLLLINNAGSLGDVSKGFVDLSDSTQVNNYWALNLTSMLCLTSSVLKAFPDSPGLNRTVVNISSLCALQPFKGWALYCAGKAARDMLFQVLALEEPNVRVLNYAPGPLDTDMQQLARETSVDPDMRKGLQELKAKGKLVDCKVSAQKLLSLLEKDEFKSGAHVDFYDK

Row | SMILES | IC50 (read-out: IC50) | IC50 (read-out: pIC50 (converted)) | further results
1 | Cc1n[nH]c2ncc(C(=O)c3cc(F)ccc3O)cc12 | 50 nM |  | 
2 | COc1ccc(O)c(C(=O)c2cnc3c(c2)c(C)nn3C)c1 | 2500 nM |  | 
3 | Cc1nn(CCO)c2ncc(C(=O)c3cc(F)ccc3O)cc12 | 50 nM |  | 
4 | COc1cc(C(F)(F)F)ccc1-c1nc(Cl)cc2cc(S(=O)(=O)Nc3nccs3)ccc12 |  | 1780 nM | 
5 | COc1cc(C(F)(F)F)ccc1-c1nccc2cc(S(=O)(=O)Nc3ccc(F)cn3)ccc12 |  | 1780 nM | 
6 | COc1ccc(O)c(C(=O)c2cnc3c(c2)c(C)nn3-c2cccc(Cl)c2)c1 | > 19000 nM |  | 
7 | CCOC(=O)C1=C(O)C2(CCC(=CC(=O)OC)CC2)c2ccc(Cl)cc2C1=O (stereo not given) |  |  | pIC50: 5.39
8 | Cc1ccc(O)c(C(=O)c2cnc3c(c2)c(C)nn3-c2ccccn2)c1 | 1720 nM |  | 
9 | Cc1ccc(-n2nc(C)c3cc(C(=O)c4cc(C)ccc4O)cnc32)cc1 | > 19000 nM |  | 
10 | COc1ccc(O)c(C(=O)c2cnc3c(c2)c(C)nn3-c2ccccc2)c1 | 17000 nM |  | 
11 | O=C(Nc1cccc(C(F)(F)F)c1)N1CCC(S(=O)(=O)Nc2nccs2)CC1 |  | 9550 nM | 
12 | Cc1ccc(O)c(C(=O)c2cnc3c(c2)c(C)nn3-c2ccc(F)cc2)c1 | > 19000 nM |  | 
13 | Cc1nn(-c2ccccn2)c2ncc(C(=O)O)cc12 | > 19000 nM |  | 
14 | Cc1nn(-c2ncccn2)c2ncc(C(=O)c3ccccc3O)cc12 | 140 nM |  | 
15 | Cc1cc(C(=O)C2C(=O)CC(C)CC2=O)c(C)c2c1S(=O)(=O)CCc1cn(C)nc1-2 (stereo not given) |  | 324 nM | 
16 | CCOC(=O)c1c(C)n(C)c2cc(Nc3ccccc3)c(O)cc12 |  | 6760 nM | 
17 | Cc1nn(C2CCCS2(=O)=O)c2ncc(C(=O)c3cc(F)ccc3O)cc12 (stereo not given) | 20 nM |  | 
18 | Cc1nn(C2CCOCC2)c2ncc(C(=O)c3ccccc3O)cc12 | 20 nM |  | 
19 | Cc1nn(-c2ccccn2)c2ncc(C(=O)c3ccccc3O)cc12 | 180 nM | 66.1 nM | 
20 | O=S(=O)(Nc1ccccn1)c1ccc2c(c1)OCCO2 |  | 603 nM | 
21 | Cc1nn(-c2ccccn2)c2ncc(C(=O)c3cc(Cl)ccc3O)cc12 | 80 nM |  | 
22 | O=S(=O)(Nc1nccs1)c1ccc2c(c1)OCCN2CCc1ccncc1 |  | 575 nM | 
23 | O=C(O)c1ccc2c(C(c3ccc(Cl)cc3Cl)c3c[nH]c4cc(C(=O)O)ccc34)c[nH]c2c1 |  | 9550 nM | 
24 | CCOC(=O)CNCc1c(C(=O)CC)c2cc(OC)c(Br)cc2n1C |  | 7940 nM | 
25 | Cc1nn(-c2ccccc2F)c2ncc(C(=O)c3ccccc3O)cc12 | 50 nM |  | 
26 | CCCc1cc(C(=O)N2CCC(C3Nc4ccccc4S(=O)(=O)N3)CC2)[nH]n1 (stereo not given) |  | 2950 nM | 
27 | Cc1cccc(-n2nc(C)c3cc(C(=O)c4ccccc4O)cnc32)c1 | 1360 nM |  | 
28 | Cc1ccc(O)c(C(=O)c2cnc3c(c2)c(C)nn3C)c1 | 970 nM |  | 
29 | Cc1nn(C)c2ncc(C(=O)c3cc(F)ccc3O)cc12 | 40 nM |  | 

Second part, led by results:

Row | IC50 (read-out: IC50) | IC50 (read-out: pIC50 (converted)) | SMILES | further results
30 | 80 nM |  | Cc1nn(C)c2ncc(C(=O)c3ccccc3O)cc12 | 
31 |  | 6170 nM | CC1(C)C=Cc2c(c(CCO)c3occ(-c4ccc(O)c(O)c4)c(=O)c3c2O)O1 | 
32 | 30 nM |  | Cc1nn(C2CCOC2)c2ncc(C(=O)c3ccccc3O)cc12 (stereo not given) | 
33 | > 19000 nM |  | Cc1nn(-c2ccccn2)c2ncc(C(=O)N(C)C)cc12 | 
34 |  | 3020 nM | O=C(Nc1nc2ccc(CN3CCCCC3)cc2n1[C@H]1CC[C@@H](C(=O)O)CC1)c1ccc(F)cc1 | 
35 |  | 8130 nM | Cc1ccc(C(=O)c2ccccc2O)c(O)n1 | 
36 |  | 57.5 nM | CCn1ncc(C(=O)c2cc(Cl)c(N(C)S(=O)(=O)N(C)C)cc2OC)c1O | 
37 |  | 3240 nM | CC1(C)C(O)=C(C(N)=O)C(=O)c2cc(C(=O)NCCc3ccccc3)ccc21 | 
38 | 820 nM |  | Cc1nn(-c2ccc(F)cc2)c2ncc(C(=O)c3ccccc3O)cc12 | 
39 |  | 9120 nM | O=C(CN(c1cccc(Cl)c1)S(=O)(=O)c1cccnc1)N[C@H]1CC[C@H](n2c(=O)[nH]c3ccccc32)CC1 | 
40 |  | 4370 nM | Cn1nc(-c2cccnc2)c2c1NC(=O)C[C@@H]2c1ccc2cccc(O)c2n1 | 
41 |  | 7590 nM | FC(F)(F)Oc1cccc(-n2nnnc2N2CCN(c3ncnc4sc5c(c34)CCC5)CC2)c1 | 
42 | 180 nM |  | Cc1nn(-c2ccccc2)c2ncc(C(=O)c3cc(F)ccc3O)cc12 | 
43 | 40 nM |  | Cc1nn(CCO)c2ncc(C(=O)c3cc(Cl)ccc3O)cc12 | 
44 | 860 nM |  | Cc1nn(-c2ccccc2)c2ncc(C(=O)c3ccccc3O)cc12 | 
45 | > 19000 nM |  | COc1ccc(O)c(C(=O)c2cnc3c(c2)c(C)nn3-c2cccc(C)c2)c1 | 
46 | 50 nM |  | Cc1ccnc(-n2nc(C)c3cc(C(=O)c4ccccc4O)cnc32)c1 | 
47 | 140 nM |  | Cc1nn(-c2ccncn2)c2ncc(C(=O)c3ccccc3O)cc12 | 
48 | 40 nM |  | Cc1nn(-c2ccccn2)c2ncc(C(=O)c3cc(F)ccc3O)cc12 | 
49 | > 19000 nM |  | Cc1ccc(O)c(C(=O)c2cnc3c(c2)c(C)nn3-c2ccccc2)c1 | 
